Experimental data reported in PubChem BioAssay AID1421 (Emory University Molecular Libraries Screening Center, 2008).
The source made the active and inactive calls. How the calls were made is not given here.

Target: Prostaglandin E2 receptor EP2 subtype (Homo sapiens) (UniProt P43116)
Assay: EP2 receptor modulators, dose response, cell-based, human EP2, PGE2 EC50 shift (AID 1421)
Details: EP2-expressing cells, PGE2 EC50 shift by compound

Chain of Prostaglandin E2 receptor EP2 subtype (Homo sapiens) (P43116 whole entry, looked up): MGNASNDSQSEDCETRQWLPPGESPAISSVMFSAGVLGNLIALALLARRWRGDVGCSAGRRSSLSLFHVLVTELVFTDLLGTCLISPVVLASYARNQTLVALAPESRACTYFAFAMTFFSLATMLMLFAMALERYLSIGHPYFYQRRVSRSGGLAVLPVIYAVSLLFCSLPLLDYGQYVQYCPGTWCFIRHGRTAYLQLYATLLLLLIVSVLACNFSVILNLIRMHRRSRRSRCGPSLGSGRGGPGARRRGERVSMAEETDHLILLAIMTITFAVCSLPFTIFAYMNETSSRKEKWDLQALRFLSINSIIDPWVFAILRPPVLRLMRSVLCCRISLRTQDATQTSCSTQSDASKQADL

SMILES | outcome
FC(F)(F)c1cc(-c2ccccc2)nc2nc(N3CCOCC3)sc12 | active
Cc1ccc(C(=O)c2c(NC(=O)c3ccncc3)sc3c2CCCC3)cc1 | active
COc1ccccc1CNc1cc(C)ccc1C | active
O=C(Nc1ccccc1N1CCCCC1)c1cnccn1 | active
C=CCSc1nc2ccccc2n1S(=O)(=O)c1ccc(Cl)cc1 | active
Cc1cccc(C)c1OC(=O)C(c1ccccc1)c1ccccc1 | active
COc1ccc(-c2nc(NC(C)=O)sc2-c2ccccc2)cc1 | active
CCOC(=O)c1c(NC(=O)c2ccc(-n3cnnn3)cc2)sc2c1CCCC2 | active
O=C(O)c1ccc(-c2nc(-c3cccc(C(F)(F)F)c3)cs2)cc1 | active

Same assay, conditions: EP2-expressing cells, PGE2 EC50 shift by compound; measured here: PGE2 EC50 at 6.7 uM compound

SMILES | PGE2 EC50 with compound [nM]
c1ccc(-c2noc(CN3CCN(C(c4ccccc4)c4ccccc4)CC3)n2)cc1 | 0.73
Cc1cc2ccccc2nc1SCC(=O)NC1CCCC1 | 1.4
FC(F)(F)c1cc(-c2ccccc2)nc2nc(N3CCOCC3)sc12 | 1.68
CC(=O)N1c2ccccc2C(C)CC12CCCCC2 (stereo not given) | 2.48
Cc1cccnc1N(C(=O)Nc1ccccc1)C1=NCC(C)(C)S1 | 0.57
COc1cc(S(=O)(=O)N(Cc2cccnc2)Cc2ccco2)ccc1-n1cnnn1 | 1.45
Cc1nc(N2N=C(c3ccc(Cl)cc3)CC2c2ccco2)sc1C(=O)N(C)C (stereo not given) | 2.73
COC(=O)c1nc(NC(=O)C(C)(C)C)n[nH]1 | 2.41
CC(NC(c1ccccc1)c1ccccc1)C(=O)N1CCCc2ccccc21 (stereo not given) | 1.25
Cc1ccc(S(=O)(=O)c2c(C)cc(C)nc2N2CCCCC2)cc1 | 1.31
O=C(Nc1cccc2cccnc12)c1ccc(Br)o1 | 1.22
Cc1scc(-c2n[nH]c(=S)n2Cc2ccccc2)c1C | 2.55
CC(=O)N1c2ccccc2C(C)(c2ccccc2)CC1(C)C (stereo not given) | 2.45
C=CCOc1c(Br)cc(/C=N/n2c(CC)n[nH]c2=S)cc1Br | 0.81
Cc1cccc(/C=N/Nc2cc(N3CCOCC3)nc(N3CCOCC3)n2)c1 | 1.08
O=C(N/N=C/c1ccc[nH]1)c1ccccc1OCc1ccccc1Cl | 2.65
COC(=O)c1c(NC(=O)CSc2nnc(-c3ccco3)n2Cc2ccccc2)sc(C)c1C | 0.85
COc1ccccc1N(C(=O)NCc1ccccc1)C1=NCC(C)S1 (stereo not given) | 1.58
OC1(c2ccc(Br)cc2)CN(c2ccccc2)C2=[N+]1CCS2 (stereo not given) | 1.17
COc1ccc(CCN(Cc2nc(-c3ccccc3)no2)Cc2nc(-c3ccccc3)no2)cc1OC | 1.2
CSc1nc(Oc2ccccc2)c2sccc2n1 | 0.93
C=C(C)Cn1c(C)cc(C)c(S(=O)(=O)c2cccc(C)c2)c1=O | 1.28

SMILES | PGE2 EC50 with compound [nM]
CC(C)Sc1nc2sc3c(c2c2nnc(SCC(=O)NCc4ccco4)n12)CCCC3 | 0.93
Cc1ccc(N=N/C(=C\O)C(=O)c2ccc(Cl)cc2)cc1 | 0.87
COc1ccc(-n2c(=S)[nH]c3c(oc4ccccc43)c2=O)cc1 | 2.8
CCCOc1ccccc1Cn1c(=O)oc2ccc(C)cc21 | 2.64
CSc1nnc(CSCc2ccc(Cl)cc2Cl)n1-c1ccccc1 | 2.63
O=C(Nc1ccccc1N1CCCC1)c1cc2ccccc2o1 | 1.46
Cc1cccc(Cn2c(Cc3ccccc3)nc3ccccc32)c1 | 0.71
NCCc1c(-c2ccccc2)n(-c2ccccc2)c2ccccc12 | 1.25
N#Cc1sc2nc(C3CC3)cc(-c3ccc(Cl)cc3)c2c1N | 0.81
Cc1cccc(-n2c(CCn3nc(C)c([N+](=O)[O-])c3C)n[nH]c2=S)c1 | 2.79
Cc1ccc(S(=O)(=O)c2c(C)nn(-c3ccccc3)c2OC(=O)c2ccco2)cc1 | 0.71
CCOC(=O)c1ccccc1NC(=O)CSc1ncc(C(=O)OCC)c(N)n1 | 0.96
CCCC(=O)N1CCCC(c2nc(-c3cccs3)no2)C1 (stereo not given) | 1.2
Nc1nc(Cc2ccccc2)nc(Cc2ccccc2)c1-c1ccccc1 | 0.79
O=C(O)c1cccc(NN=C2c3ccccc3-c3ccccc32)c1 | 0.8
CCCCOc1ccccc1Cn1c(=O)oc2ccc(C)cc21 | 0.92
Cc1cc(N)c2cc(NC(=O)Nc3ccc4nc(C)cc(N)c4c3)ccc2n1 | 2.6
Cc1ccc(CN2C(=O)CN=C(c3ccccc3)c3ccccc32)cc1 | 1.23
COc1cccc(N=c2oc3c(C)ncc(CO)c3cc2C(=O)Nc2ccccc2OC)c1 | 1.48
CCOc1nc(-c2ccccc2O)nc2ccccc12 | 1.1
Cc1cc(O)ccc1C1(c2ccc(O)cc2C)OC(=O)c2ccccc21 | 0.55
O=C(CNC1CCCCC1)N1CCC2(CC1)OCCO2 | 1.35

SMILES | PGE2 EC50 with compound [nM]
COc1ccc(C(=O)c2cnc3ccccc3c2-c2ccccc2)cc1 | 0.59
COC(=O)c1sc2nc(-c3ccccc3)c3c(c2c1N)CCCC3 | 0.33
Fc1ccc(C(c2ccc(F)cc2)N2CCN(C/C=C/c3ccccc3)CC2)cc1 | 1.19
COc1cc2nc(N3CCN(C(=O)C4CCCO4)CC3)nc(N)c2cc1OC (stereo not given) | 0.85
CC(=C\c1ccccc1)/C=C1/SC(=S)N(C(C(=O)O)C(C)C)C1=O (stereo not given) | 1.31
CC(=O)N(c1cccc(Br)c1)C1C=CS(=O)(=O)C1 (stereo not given) | 0.98
Cc1ccc(C(=O)c2c(NC(=O)c3ccncc3)sc3c2CCCC3)cc1 | 0.66
CCCOC(=O)c1ccc(NC(=O)c2cn(CC)c3nc(C)ccc3c2=O)cc1 | 1.57
CC[C@@H]1C(=O)OC[C@@H]1Cc1cncn1C | 1.8
CC1Cc2ccccc2N1C(=O)CSc1nnc(Cc2ccccc2)n1CCc1ccccc1 (stereo not given) | 1.14
Cc1ccc2c(c1)-c1nc3ccccc3cc1C2=NC1CCCCC1 | 1.41
COc1cccc(/C=N/c2oc(-c3ccccc3)cc2C#N)c1O | 1.17
COc1ccccc1CNc1cc(C)ccc1C | 0.77
Cc1ccc(S(=O)(=O)c2ccc(Oc3cccc(C)c3)cc2)cc1 | 1.41
O=C(Nc1ccccc1N1CCCCC1)c1cnccn1 | 0.93
CN(Cc1cccs1)c1nc(-c2cccnc2)nc2ccccc12 | 1.07
CCSc1ncnc2sc3c(c12)CCC3 | 0.94
Cc1noc(C)c1CSc1ncnc2sc3c(c12)CCCCC3 | 1.22
C=CCSc1nc2ccccc2n1S(=O)(=O)c1ccc(Cl)cc1 | 0.85
Cc1cccc(C)c1OC(=O)C(c1ccccc1)c1ccccc1 | 2.47
Nc1ccc(SC(F)(F)F)cc1C(=O)c1ccccc1 | 2.39
Fc1cccc(CSc2ncnc3c2oc2ccccc23)c1 | 2.7

SMILES | PGE2 EC50 with compound [nM]
COc1ccc(-c2nc(NC(C)=O)sc2-c2ccccc2)cc1 | 1.01
Cc1ccc(-c2nnc(N3CCC(C)CC3)c3ccccc23)cc1 | 1.39
CCOC(=O)c1c(-c2cccs2)csc1NC(=O)CN1CCOCC1 | 0.99
CCOC(=O)c1ccccc1NC(=O)C1COc2ccccc2O1 (stereo not given) | 0.66
CCOC(=O)c1c(NC(=O)c2ccc(-n3cnnn3)cc2)sc2c1CCCC2 | 0.85
O=C(Nc1ccccc1N1CCCCC1)c1ccc2nccnc2c1 | 1.35
CCCCCn1c(SCCC(C)C)nc2c1c(=O)[nH]c(=O)n2C | 1.21
O=C(O)c1ccc(-c2ccccc2Cl)o1 | 1.44
O=C(O)c1ccc(-c2nc(-c3cccc(C(F)(F)F)c3)cs2)cc1 | 1.19
CC1CC(C)CN(CC(=O)NC(c2ccccc2)c2ccccc2)C1 (stereo not given) | 2.64
O=S(=O)(O)c1ccc2c(N=Nc3c(O)ccc4ccccc34)cccc2c1 | 1.28
CC1=Nc2ccccc2/C1=C/c1sc(=S)n(-c2cccc(C(=O)O)c2)c1O | 0.4
FC(F)(F)c1nc(=S)c2ccccc2[nH]1 | 2.84
COc1ccc(OC)c(C2=Nn3c(nnc3-c3ccco3)SC2)c1 | 0.93
Cc1ccc(OCC(=O)NNC(=O)C2CCN(c3ncccn3)CC2)cc1 | 0.81
C[N+]1(C)CCOC(O)(c2ccc(-c3ccc(C4(O)C[N+](C)(C)CCO4)cc3)cc2)C1 (stereo not given) | 0.14
CCOC(=O)Cc1csc(NC(NC(=O)CC)(C(F)(F)F)C(F)(F)F)n1 | 1.03
O=c1c2ccccc2c(-c2ccccc2)nn1-c1ccc(Cl)c(Cl)c1 | 1.42
CCn1c2ccccc2c2cc(/C=N/n3c(C)nnc3C)ccc21 | 1.15
Cc1ccsc1-c1n[nH]c(=S)n1C1CCCCC1 | 1.2
O=C(c1cc2sccc2n1Cc1ccc(F)cc1)N1CCCc2ccccc21 | 1.56
O=C(O)CCN1C(=O)/C(=C/c2cn(-c3ccccc3)nc2-c2cccs2)SC1=S | 0.33

SMILES | PGE2 EC50 with compound [nM]
CCc1ccc(Nc2oc(C)cc(=O)c2C(C)=O)cc1 | 1.55
CCn1c(COc2ccc(Cl)cc2)nnc1SCC(=O)Nc1ccc2c(c1)OCO2 | 1.09
O=C(/C(=C/O)N=Nc1ccccc1Cl)c1ccccc1 | 2.68
Cc1ccc(Cn2ccc(=O)c(OCc3c(Cl)cccc3Cl)c2C)cc1 | 1.18
Cn1c(=O)c2c(nc(CN3CCN(c4ccccc4)CC3)n2Cc2ccccc2Cl)n(C)c1=O | 2.59
O=c1c2c(nc3n1CCCCC3)-c1ccccc1CC21CCCCC1 | 1.25
O=c1c2ccccc2c(=O)n(Cc2ccccc2)n1Cc1ccccc1 | 1.16
O=C(O)c1nc2nc(Cl)c(Cl)nc2[nH]1 | 1.28
Cc1cccc(OC(=O)c2sc(Cl)nc2C)c1 | 0.83
Cc1cccc2cc(CN(Cc3cccs3)C3(c4nnnn4C4CCCC4)CCCC3)c(=O)[nH]c12 | 1.08
COC(=O)c1ccccc1NC(=O)C(C)Oc1ccccc1 (stereo not given) | 0.9
CCOc1ccc(-c2nn3c(-c4ccccc4)nnc3s2)cc1 | 1.04
CCOC(=O)c1c(-c2ccc(C)cc2)csc1NC(=O)CCN1CC(C)OC(C)C1 (stereo not given) | 0.68
O=C(CSc1nc(Cc2ccccc2)nc2ccccc12)c1ccc2c(c1)OCCO2 | 1.23
O=C(Nc1ccccc1-c1nc2ccccc2s1)C1=COCCO1 | 0.46
COc1c(Cl)cc(Cl)cc1C(=O)n1nc(C)cc1C | 1.14
CCCCc1nnc(SCCSc2nnc(CCCC)n2N)n1N | 1
COC(=O)c1c(NC(=O)CSc2nnc(-c3cccnc3)n2Cc2ccco2)sc(C)c1C | 0.79
